# Measured values reported in paper PMC12410356 (International Journal for Parasitology: Drugs and Drug …, 2025).
# Columns and labels:
# [1] = system: E. multilocularis metacestode vesicles; assay: Phosphoglucose isomerase (PGI) release assay (damage-marker release) on metacestode vesicles; format: cell-based, Echinococcus multilocularis; conditions: 10 μM; for PGI d5 (relative PGI release): 5 days; for PGI d12 (relative PGI release): 12 days
# [2] = system: E. multilocularis metacestode vesicles; assay: Metacestode vesicle viability assay (ATP, CellTiter-Glo); format: cell-based, Echinococcus multilocularis
# Procedure: Viability was assessed after 12 days using the same metacestode vesicles as for the PGI release assay. Triton X-100 was added to each well to a final concentration of 0.1 %. Subsequently the metacestode vesicles were broken mechanically and 50 μL of the supernatant was mixed with 50 μL of CellTiter-Glo® buffer (Promega, Dübendorf, Switzerland). Measurements were performed on a HIDEX Sense microplate reader.
# [3] = overview screen, singlets, relative to 0.1 % Triton X-100, DMSO subtracted
# [4] = overview screen, 10 μM, singlets, 12 days, relative to DMSO control
# [5] = confirmation screen, triplicates, mean
# [6] = confirmation screen, 10 μM, triplicates, mean, 12 days
SMILES,"PGI d5 (relative PGI release) [1, 3]","PGI d12 (relative PGI release) [1, 3]","Viability d12 (relative viability) [2, 4]",Viability d12 (relative viability) ([2]; 10 µM),"PGI d5 (relative PGI release) [1, 5]","PGI d12 (relative PGI release) [1, 5]","Viability d12 (relative viability) [2, 6]"
N#Cc1cc([N+](=O)[O-])ccc1Oc1ccccc1Cl [MMV1580800],1.0953%,-9.284%,90.6917%,–,–,–,–
O=C(O)COc1cccc2c1CC[C@](O)(COC(=O)N(c1ccccc1)c1ccccc1)C2 [MMV1782352],-0.08001%,-0.2818%,68.1339%,–,–,–,–
O=P(O)(O)C(CCCc1cccc(Oc2ccccc2)c1)S(=O)(=O)O (stereo not drawn) [MMV1782215],0.5378%,19.5176%,65.7947%,–,–,–,–
NCc1ccc(S(N)(=O)=O)cc1 [MMV002665],0.8805%,-5.499%,–,140.59%,–,–,–
CC(N)C12CC3CC(CC(C3)C1)C2 (stereo not drawn) [MMV637855],0.08745%,-0.5462%,63.7477%,–,–,–,–
O=c1cc(OCc2ccccc2)ccn1Cc1ccccc1 [MMV1579775],-1.928%,-10.779%,63.3743%,–,–,–,–
Cc1onc(-c2ccccc2Cl)c1C(=O)N[C@@H]1C(=O)N2[C@@H]1SC(C)(C)[C@@H]2C(=O)O [MMV002740],-1.463%,-24.5158%,–,55.1081%,–,–,–
NC(=O)c1cnc2ccc(S(=O)(=O)c3ccccc3)cc2c1Nc1ccc(O)cc1 [MMV1580848],-0.9531%,29.1599%,51.7682%,–,–,–,–
O=c1oc2ccc(Br)cc2cc1CSc1ncc[nH]1 [MMV1782105],1.562%,-17.9407%,107.746%,–,–,–,–
O=C(NC(=O)N1CCCc2ccccc21)c1cccc(Cl)c1 [MMV1782351],-2.457%,-24.682%,118.649%,–,–,–,–
CC(C)c1cc2c(cc1S(=O)(=O)O)[C@@]1(C)CCC[C@@](C)(C(=O)O)[C@@H]1CC2 [MMV1633675],-5.75%,-3.32%,100.907%,–,–,–,–
O=C(Nc1cccc(C2=NCCN2)c1)c1ccc(-c2ccc(C(=O)Nc3cccc(C4=NCCN4)c3)cc2)cc1 [MMV1580853],0.237%,89.997%,3.841%,–,-0.08%,7.37%,134.53%
OC(Cn1cncn1)(Cn1cncn1)c1ccc(F)cc1F [MMV002337],-1.63%,-24.335%,76.1493%,–,–,–,–
NS(=O)(=O)c1ccc(NC(=O)NC(c2ccccc2)c2ccccc2)cc1 [MMV1579776],-0.6102%,61.5508%,8.5167%,–,-0.15%,-0.30%,80.00%
Cc1cc(C2CCCCC2)n(O)c(=O)c1 [MMV002731],-0.5492%,-23.4097%,–,50.1817%,–,–,–
O=C(NCc1cccc2ccccc12)c1cccs1 [MMV1579845],-2.677%,-26.5326%,53.7721%,–,–,–,–
CC(C)(C)NC(=O)N[C@H](C(=O)N1C[C@H]2[C@@H]([C@H]1C(=O)NC(CC1CCC1)C(=O)C(N)=O)C2(C)C)C(C)(C)C (stereo partly drawn) [MMV1580497],0.3266%,69.2218%,40.5469%,–,–,–,–
CN1CCN(Cc2ccc(-c3cnc4[nH]cc(-c5ccc6[nH]ccc6c5)c4c3)cc2)CC1 [MMV1580482],0.2177%,0.07079%,108.591%,–,–,–,–
CN(C(=O)C1(c2ccc(Cl)cc2)CCC1)c1ccccc1 [MMV1581030],0.6829%,-0.7665%,114.111%,–,–,–,–
O=S(=O)(Nc1ccccc1)c1ccc(NC(=S)Nc2ccccc2)cc1 [MMV1578562],-3.292%,-3.243%,118.128%,–,–,–,–
COc1ccc(C)cc1NC(=O)c1ccc(S(=O)(=O)N2CCCCC2)cc1 [MMV1578579],-1.553%,-13.2873%,52.1022%,–,–,–,–
O=C(c1cc(O)nc2ccccc12)N1CCN(c2ccccc2)CC1 [MMV596723],0.1357%,-19.4413%,136.964%,–,–,–,–
